The term melting point denotes the temperature, or range, at which the solid turns liquid. The compound `CC1CCN(c2ccc(NC(=O)CCC(=O)O)cc2)CC1` yielded a melting point of 174 to 176 °C. The value for `CNc1cc(C(F)(F)F)nc2ccccc12` was 159 to 161 °C; that for `CCCN(CCC)C(=O)c1cccc(C(=O)O)c1` was 94 to 96 °C. Under `Cc1cc(S(N)(=O)=O)sc1C(=O)O` stands 249 to 251 °C; under `COc1ccc([N+](=O)[O-])cc1C(C)N` (configuration not stated), 62 to 64 °C. The value for `N#Cc1ccc(OCc2ccccc2)nc1` was 71 to 73 °C; that for `Cc1cc(SCC(=O)O)nc2ccccc12` was 117 to 119 °C; that for `CCCCN(C)S(=O)(=O)c1ccc(N)cc1` was 76 to 80 °C.

In turn, `CCOC(=O)/C(=C(\O)CCl)c1nc(C)cs1` showed a melting point of 76 to 78 °C. The value for `CC(C)CCNc1c(N)n(Cc2ccccc2)c(=O)[nH]c1=O` was 203 to 205 °C; that for `COc1cc(CCC(=O)O)ccc1Cl` was 132 to 134 °C; that for `COC(=O)c1nc(Cl)ccc1S(=O)(=O)Cl` was 143 to 145 °C.

On to `Cc1ccc2nc(CCl)cc(=O)n2c1`, for which the melting point was in the range of 136 to 138 °C.

The compound `N#CCN1CCC(=O)CC1` registered a melting point of 91 to 93 °C. Under `Cc1ccc(S(=O)(=O)CC(C)O)cc1` (configuration not stated) stands 76 to 78 °C; under `CCC(=O)Nc1cccc(N)c1C`, 116 to 118 °C. Compound `C/C(=N\Nc1ccc(Cl)c(C(=O)O)c1)c1ccc(Br)cc1` returned a melting point of 180 to 182 °C.

For `Cn1cc(C(=O)O)c(-c2ccc([N+](=O)[O-])cc2)n1`, the melting point lay in the range of 299 to 301 °C. Compound `CC(C)(C)S(=O)(=O)c1ccc(Br)cn1` came in with a melting point of 116 to 118 °C. `CN(CC(N)=O)C1CCCC1` yielded a melting point of 78 to 80 °C.

In the case of `O=C(Nc1cccc(NC(=O)c2ccco2)c1)OCC(F)(F)F`, the melting point lay in the range of 167 to 169 °C. In the case of `Cc1ccccc1-n1ccnc1S`, the melting point was 245 to 247 °C. The value for `Nc1ccc(Sc2ccc(Cl)cc2)cc1` was 60 to 62 °C.

Consider `N#CCC(=O)c1cccc([N+](=O)[O-])c1`, for which the melting point was 149 to 151 °C. Under `CNS(=O)(=O)c1ccc(Cl)c(C(=O)O)c1` stands 171 to 173 °C. In turn, `Cc1ccc2c(C)cc(NN)nc2c1C` registered a melting point of 191 to 193 °C. The value for `N#CCc1cc2ccccc2nc1Cl` was 128 to 130 °C; that for `Cc1ccc2cc(C(=O)O)[nH]c2c1` was 209 to 211 °C; that for `O=C(CCl)Nc1ccccc1-c1ccccc1` was 103 to 106 °C. The value for `CCC(C)c1ccc(-c2csc(N)n2)cc1` (configuration not stated) was 77 to 79 °C; that for `O=C(O)CNC(=O)COc1ccccc1` was 89 to 91 °C.

With `O=C(c1ccc(Cl)c(Cl)c1)C1CC1`, the melting point lay in the range of 29 to 31 °C.

`CC(=O)NCCCCCC(N)=O` came in with a melting point of 112 to 114 °C. Compound `COCCCOc1cc(C)ccc1C#N` registered a melting point of 67 to 69 °C. Under `O=C(O)CN1C(=O)Cn2c(cc3ccccc32)C1=O` stands 331 to 333 °C; under `CC(O)Cc1nc2ccccc2s1` (configuration not stated), 84 to 86 °C; under `CCC(=O)N1CCCC(C(=O)O)C1` (configuration not stated), 117 to 119 °C. Under `O=C(NCCO)c1ccn[nH]1` stands 169 to 171 °C.

For the compound `COc1ccc(-c2nc(C(=O)O)cs2)cc1`, the melting point lay in the range of 172 to 174 °C. The value for `CC1(c2cc(F)ccc2F)NC(=O)NC1=O` (configuration not stated) was 227 to 229 °C. As to `O=C(O)C1CCCN1S(=O)(=O)c1cccc([N+](=O)[O-])c1` (configuration not stated), the melting point is 182 to 184 °C. Under `CCCCc1ccc(C(=O)Nc2sccc2C(=O)O)cc1` stands 183 to 185 °C; under `CN(C)c1ccnc(Cl)n1`, 79 to 81 °C. The value for `CCOC(=O)c1c(-c2ccccc2)csc1NC(=O)C(C)Cl` (configuration not stated) was 250 to 252 °C; that for `N#Cc1ncc(C(=O)O)cc1Br` was 177 to 179 °C. The value for `CC(O)c1ccc(NC(=O)c2ccncc2)cc1` (configuration not stated) was 174 to 176 °C; that for `CC(C)(C)OC(=O)NCc1cccc(O)c1` was 79 to 81 °C; that for `Clc1ccc(C2CC2)nn1` was 103 to 105 °C. Consider `CN(C)c1ccc(C#N)c(N)c1`, for which the melting point was in the range of 109 to 111 °C. In the case of `FC(F)(F)c1ccc2sc(S)nc2c1`, the melting point lay within 221 to 223 °C. Under `O=C(O)CNC(=O)c1ccc(Br)s1` stands 177 to 179 °C; under `NCC(O)c1ccc(OC(F)F)cc1` (configuration not stated), 54 to 56 °C; under `Nc1cccc(C(=O)Nc2cccc(C(F)(F)F)c2)c1`, 114 to 115 °C. `COc1cc(CC#N)ccc1SC(F)F`: the melting point is 41 to 43 °C.

Compound `OCc1cc(-c2ccccc2)[nH]n1` registered a melting point of 144 to 146 °C. The value for `Cc1ccc(S(C)(=O)=O)cc1C(=O)O` was 204 to 206 °C; that for `Cc1cc(C(=O)Cl)sc1C` was 59 to 61 °C; that for `COc1ccc(-c2csc(N)n2)cc1F` was 185 to 187 °C. The value for `N#Cc1c(F)c(N)c(F)c(F)c1C#N` was 159 to 161 °C. Under `O=C(CCl)N(Cc1ccc(Cl)cc1)C12CC3CC(CC(C3)C1)C2` stands 112 to 114 °C; under `C=CCn1c(C)nnc1S`, 264 to 266 °C. In turn, `Cc1nc2ccccn2c1P(c1ccccc1)c1ccccc1` came in with a melting point of 98 to 100 °C.

The compound `CCOc1ccc(N)c(C(N)=O)c1` displayed a melting point of 148 to 150 °C. The value for `O=[N+]([O-])c1cc(Br)ccc1I` was 84 to 86 °C; that for `Cc1cc(NC(=O)C(Br)C(C)C)no1` (configuration not stated) was 96 to 98 °C. Under `c1ccc(-n2cccn2)nc1` stands 37 to 39 °C. `O=C(O)c1cc(Cl)ccc1Sc1ccc(Cl)cc1` gave a melting point of 158 to 160 °C. The value for `O=C(O)c1c(F)ccc(S(=O)(=O)Cl)c1F` was 107 to 111 °C; that for `CC(C)CC(N)c1nc(-c2nnc[nH]2)no1` (configuration not stated) was 203 to 205 °C. In turn, `O=C1COc2ncccc2N1` came in with a melting point of 254 to 256 °C. The value for `O=C(O)c1cnc(NC2CC2)s1` was 217 to 219 °C; that for `O=C(O)CCc1nc2ccccc2s1` was 97 to 99 °C. The value for `CN[C@@H]1CN(C(=O)OC(C)(C)C)C[C@H]1O` was 89 to 91 °C; that for `NCCC(=O)N1CCN(c2ncccn2)CC1` was 87 to 89 °C; that for `CCCNc1cc(F)ccc1[N+](=O)[O-]` was 61 to 63 °C. The value for `NC(=O)C1(N)CCOCC1` was 78 to 80 °C; that for `Cc1cc(Br)ccc1N1CC(C(=O)O)CC1=O` (configuration not stated) was 81 to 83 °C; that for `N#Cc1ccc(Oc2ccc(O)cc2)cc1` was 148 to 150 °C.

As to `CC(=O)CCc1ccc(O)c(F)c1`, the melting point lay within 88 to 90 °C. Under `CSc1c(F)cc(N)cc1F` stands 91 to 93 °C; under `Nc1ccc2nc(S)oc2c1`, 208 to 210 °C.

`Cc1ccc(C=CC(=O)O)o1` had a melting point of 118 to 120 °C. The value for `NS(=O)(=O)C1CCS(=O)(=O)C1` (configuration not stated) was 144 to 146 °C. The value for `Cc1cc(=O)[nH]c(C)c1C(=O)O` was 274 to 276 °C; that for `O=S(=O)(Nc1nccs1)c1ccc(Cl)nc1` was 229 to 231 °C.

`COC(=O)c1cccc(-c2nc(CCl)cs2)c1` gave a melting point of 129 to 131 °C.

Take `CC(Sc1ccc(Br)cc1)C(=O)O` (configuration not stated): the melting point lay within 113 to 115 °C. Under `CC(C)(C)OC(=O)N1CCC(C(=O)O)(C(=O)O)C1` stands 131 to 133 °C; under `Cc1ccc(C2(C)NC(=O)NC2=O)cc1` (configuration not stated), 207 to 209 °C; under `O=Cc1cnc(N2CCCC2)nc1`, 118 to 120 °C. Under `CC1CCc2c(sc3nc(CN4CCOCC4)nc(Cl)c23)C1` (configuration not stated) stands 55 to 57 °C; under `OCCNCc1cccc(OCc2ccccc2Cl)c1`, 49 to 50 °C. Take `COCc1cc(C(=O)O)no1`: the melting point lay within 85 to 87 °C. Compound `NC(Cc1ccccc1)C(=O)Nc1ccccc1` (configuration not stated) showed a melting point of 76 to 78 °C.

The compound `Cc1ccc(C#N)c(N2CCCC2)n1` came in with a melting point of 74 to 76 °C. Under `CCOC(=O)c1c(N)sc2ccccc12` stands 105 to 107 °C. `CS(=O)(=O)NCCC1CCCCN1` (configuration not stated) registered a melting point of 105 to 107 °C. `Cc1cc(N)n(Cc2ccccc2)n1` showed a melting point of 68 to 70 °C. Compound `O=C(O)c1n[nH]c(=O)[nH]c1=O` registered a melting point of 224 to 226 °C.

In the case of `NC(=S)NN=Cc1ccccc1Cl`, the melting point lay in the range of 210 to 212 °C.

Compound `CC(C)n1c(C(=O)O)cc(Br)c1Br` yielded a melting point of 127 to 129 °C. The value for `Nc1cc(OCC(F)(F)F)cc(OCC(F)(F)F)c1` was 50 to 52 °C. Under `O=C(O)CNC(=O)c1cccs1` stands 169 to 171 °C; under `OCc1ccncc1Cl`, 118 to 120 °C; under `O=C(O)C1CC(=O)N(c2cccc(Br)c2)C1` (configuration not stated), 142 to 144 °C. Under `O=c1[nH]ccc2occc12` stands 193 to 195 °C; under `N#Cc1ccc2nc(N)ncc2c1`, 344 to 346 °C; under `COc1ccccc1CNC(=O)n1ccnc1`, 128 to 130 °C. Take `N#Cc1c(-c2ccccc2)nc(S)[nH]c1=O`: the melting point fell in the range of 327 to 329 °C. Under `Cc1nc(C2(NC(=O)CCl)CCCCC2)no1` stands 93 to 95 °C; under `Cc1nn(C(C)(C)C)c2nc(C3CC3)cc(C(=O)O)c12`, 172 to 174 °C; under `O=c1[nH]cnc2c1CCCN2`, 258 to 260 °C.

The compound `N#Cc1ccsc1C(=O)O` yielded a melting point of 191 to 193 °C. The value for `O=C(Nc1cc(Cl)ccc1Cl)OCC(F)(F)F` was 110 to 112 °C; that for `CCCn1nc(C(=O)O)ccc1=O` was 132 to 134 °C; that for `O=C(Cc1ccccc1)Nc1ccccc1C(=O)O` was 192 to 194 °C.

As to `Cc1cccc(/C=C/c2cc(C(=O)O)c3cc(Br)ccc3n2)c1`, the melting point is 286 to 288 °C.

On to `N#CCc1ccc(NC2CCCCC2)cc1`, for which the melting point lay within 57 to 59 °C.

For `CCC1(c2ccc(C)cc2)CC(=O)NC1=O` (configuration not stated), the melting point is 76 to 78 °C. The compound `COc1cc(C=O)cc(Cl)c1OC` gave a melting point of 56 to 58 °C.

`O=C(O)c1cc(Cl)c(Br)[nH]1`: the melting point lay within 168 to 170 °C. The value for `O=C(CCl)Nc1ccccc1I` was 38 to 40 °C.

The values above are taken from a melting point compilation (Tetko et al.).
